Results as given in patent publication US5491216A, “Tri-arginine insulins” (Eli Lilly and Company, priority 1993, dated 1996).

Tests used:
[1] = standardized value used in the formula for test solutions; cited from earlier work
[2] = test system: New Zealand White rabbits; assay: Hypoglycemic activity after subcutaneous injection in fasted rabbits (blood glucose, percent of original); assay type: in vivo, rabbit; settings: for Percent of Original Blood Glucose: added zinc 0 mg/ml, 0.2 U/kg s.c., 40 U/ml, n = 10 rabbits
Protocol: Solutions were prepared containing various amounts of zinc (0-2.4 mg/ml) in the form of zinc chloride. Glacial acetic acid was used to solublize each of the solutions at a final pH range of pH 4-6.
New Zealand White rabbits, mostly female, all weighing 0 2.7-4 kg, 0.5-4 years of age and fasted 16 hours prior to administration of sample were used for testing.
At various times, 100 μl volumes of blood were obtained from the marginal ear veins, mixed with 900 μl volumes of anticoagulant (EDTA-sodium fluoride) and analyzed for glucose content. The glucose values were standardized to reflect percent of original blood glucose measured prior to sample injection.

Substance	standardized value (potency per mg protein) [1] [U/mg]	Percent of Original Blood Glucose ([2]; 1 hour after injection) [%]	Percent of Original Blood Glucose ([2]; 2 hours after injection) [%]	Percent of Original Blood Glucose ([2]; 4 hours after injection) [%]	Percent of Original Blood Glucose ([2]; 6 hours after injection) [%]	hypoglycemic activity ([2]; result in words, animal model)
human insulin: natural human insulin, reference for biopotency	28.85					
Des(64) HPI: split(64) proinsulin wherein Lys-64 is removed		63.1	70.5	90.6	90.0	hypoglycemic activity of its own
